The record followed here is US12428430B2 (BRISTOL-MYERS SQUIBB COMPANY, priority 2018, dated 2025).

This assay has as its target hLPA1 (Homo sapiens, UniProt Q92633). Put plainly: LPA1 functional antagonist assay (LPA-induced calcium flux in CHO cells overexpressing human LPA1). In kind it is cell-based. Details: expressed in transfected cells; host or cells: Chinese hamster ovary (CHO) cells. As to conditions: antagonist mode, inhibition of calcium flux induced by 10 nM LPA, read-out: hLPA1 IC50. As to the method: The effectiveness of compounds of the present invention as LPA1 inhibitors can be determined in an LPA1 functional antagonist assay as follows:
Chinese hamster ovary cells overexpressing human LPA1 were plated overnight (15,000 cells/well) in poly-D-lysine coated 384-well microplates (Greiner bio-one, Cat #781946) in DMEM/F12 medium (Gibco, Cat #11039). Following overnight culture, cells were loaded with calcium indicator dye (AAT Bioquest Inc, Cat #34601) for 30 minutes at 37° C. The cells were then equilibrated to room temperature for 30 minutes before the assay. Test compounds solubilized in DMSO were transferred to 384 well non-binding surface plates (Corning, Cat #3575) using the Labcyte Echo acoustic dispense and diluted with assay buffer [1×HBSS with calcium/magnesium (Gibco Cat #14025-092), 20 mM HEPES (Gibco Cat #15630-080) and 0.1% fatty acid free BSA (Sigma Cat #A9205)] to a final concentration of 0.5% DMSO. Diluted compounds were added to the cells by FDSS6000 (Hamamatsu) at final concentrations ranging from 0.08 nM to 5 μM. and were then incubated for 20 min at room temperature at which time LPA (Avanti Polar Lipids Cat #857130C) was added at final concentrations of 10 nM to stimulate the cells. The compound IC50 value was defined as the concentration of test compound which inhibited 50% of the calcium flux induced by LPA alone. IC50 values were determined by fitting data to a 4-parameter logistic equation (GraphPad Prism, San Diego Calif.).
On the technique in general: Calcium assays in cells follow changes in intracellular calcium, usually with a dye or a luminescent sensor.

Sequence of hLPA1 (Q92633 whole entry): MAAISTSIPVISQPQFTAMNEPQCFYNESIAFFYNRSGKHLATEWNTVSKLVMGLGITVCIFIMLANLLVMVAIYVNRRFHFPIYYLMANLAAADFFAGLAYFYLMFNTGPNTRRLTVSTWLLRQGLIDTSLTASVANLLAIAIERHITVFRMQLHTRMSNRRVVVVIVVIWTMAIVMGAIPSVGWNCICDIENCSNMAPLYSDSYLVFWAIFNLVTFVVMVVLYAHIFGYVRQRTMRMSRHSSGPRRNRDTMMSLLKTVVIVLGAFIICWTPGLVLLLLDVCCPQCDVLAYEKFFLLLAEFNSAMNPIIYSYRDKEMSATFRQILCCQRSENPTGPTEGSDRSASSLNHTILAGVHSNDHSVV

One may read the IC50 as the midpoint of a concentration-inhibition curve. Consider `Cc1noc(-c2ccc(C34CCC(CC(=O)O)(CC3)OC4)c(F)c2)c1NC(=O)O[C@H](C)c1ccccc1Cl` [Example 18, 2-(4-(4-(4-((((R)-1-(2-chlorophenyl)ethoxy)carbonyl)amino)-3-methyl-isoxazol-5-yl)-2-fluorophenyl)-2-oxabicyclo[2.2.2]octan-1-yl)acetic acid], for which the IC50 is 56 nM.

`Cc1noc(-c2ccc(C34CCC(CC(=O)O)(CC3)OC4)cc2)c1NC(=O)OC(C)c1cccc(Cl)c1` (racemic) [Example 15, (±)-2-(4-(4-(4-(((1-(3-chlorophenyl)ethoxy)carbonyl)amino)-3-methyl-isoxazol-5-yl)phenyl)-2-oxabicyclo[2.2.2]octan-1-yl)acetic acid]: the 50% inhibitory concentration (IC50) was determined as 379 nM.

For `Cc1ccccc1[C@@H](C)OC(=O)Nc1c(C)noc1-c1ccc(C23CCC(CC(=O)O)(CC2)OC3)cc1F` [Example 23, 2-(4-(3-fluoro-4-(3-methyl-4-((((R)-1-(o-tolyl)ethoxy)carbonyl)amino)isoxazol-5-yl)phenyl)-2-oxabicyclo[2.2.2]octan-1-yl)acetic acid], the 50% inhibitory concentration (IC50) worked out at 98 nM.

With `CC(OC(=O)Nc1c(-c2ccc(C34CCC(CC(=O)O)(CC3)OC4)c(F)c2)cnn1C)c1ccc(Cl)cc1` (racemic) [Example 29, (±)-2-(4-(4-(5-(((1-(4-chlorophenyl)ethoxy)carbonyl)amino)-1-methyl-1H-pyrazol-4-yl)-2-fluorophenyl)-2-oxabicyclo[2.2.2]octan-1-yl)acetic acid], the IC50 amounted to 1140 nM.

As to `Cc1noc(-c2ccc(C34CCC(CC(=O)O)(CC3)CO4)c(F)c2)c1NC(=O)O[C@H](C)C1CC1` [Example 51, 2-(1-(4-(4-((((R)-1-cyclopropylethoxy)carbonyl)amino)-3-methylisoxazol-5-yl)-2-fluorophenyl)-2-oxabicyclo[2.2.2]octan-4-yl)acetic acid], the IC50 turned out to be 222 nM.

With `CC(C)CCN(C)C(=O)OCc1c(-c2ccc(C34CCC(CC(=O)O)(CC3)OC4)cc2F)cnn1C` [Example 45, 2-(4-(3-fluoro-4-(5-(((isopentyl(methyl)carbamoyl)oxy)methyl)-1-methyl-1H-pyrazol-4-yl)phenyl)-2-oxabicyclo[2.2.2]octan-1-yl)acetic acid], the IC50 is 1120 nM.

With `Cc1noc(-c2cccc(C34CCC(CC(=O)O)(CC3)OC4)c2)c1NC(=O)O[C@H](C)c1ccccc1Cl` [Example 59, 2-(4-(3-(4-((((R)-1-(2-chlorophenyl)ethoxy)carbonyl)amino)-3-methylisoxazol-5-yl)phenyl)-2-oxabicyclo[2.2.2]octan-1-yl)acetic acid], the IC50 came to 95 nM.

As for `Cc1cc(C23CCC(CC(=O)O)(CC2)OC3)ccc1-c1onc(C)c1NC(=O)O[C@H](C)c1ccccc1C` (racemic) [Example 26, (±)-2-(4-(3-methyl-4-(3-methyl-4-((((R)-1-(o-tolyl)ethoxy)carbonyl)amino)isoxazol-5-yl)phenyl)-2-oxabicyclo[2.2.2]octan-1-yl)acetic acid], the IC50 is 92 nM.

Consider `CN(C(=O)OCc1c(-c2ccc(C34CCC(CC(=O)O)(CC3)OC4)c(F)c2)nnn1C)C1CCCC1` [Example 6, 2-(4-(4-(5-(((Cyclopentyl(methyl)carbamoyl)oxy)methyl)-1-methyl-1H-1,2,3-triazol-4-yl)-2-fluorophenyl)-2-oxabicyclo[2.2.2]octan-1-yl)acetic acid], for which the IC50 came out at 363 nM.

On to `Cn1ncc(-c2ccc(C34CCC(CC(=O)O)(CC3)OC4)cc2)c1COC(=O)N1CC[C@H](F)C1` [Example 38, 2-(4-(4-(5-((((S)-3-fluoropyrrolidine-1-carbonyl)oxy)methyl)-1-methyl-1H-pyrazol-4-yl)phenyl)-2-oxabicyclo[2.2.2]octan-1-yl)acetic acid], for which the IC50 was 1900 nM.

Consider `Cc1noc(-c2ccc(C34CCC(CC(=O)O)(CC3)OC4)cc2)c1NC(=O)O[C@H](C)C1CC1` [Example 11, 2-(4-(4-(4-((((R)-1-cyclopropyl-ethoxy)carbonyl)amino)-3-methylisoxazol-5-yl)phenyl)-2-oxabicyclo[2.2.2]octan-1-yl)acetic acid], for which the concentration for half-maximal inhibition (IC50) turned out to be 194 nM.

As for `C[C@@H](OC(=O)Nc1c(-c2ccc(C34CCC(CC(=O)O)(CC3)OC4)cc2)cnn1C)c1ccccc1` [Example 2, 2-(4-(4-(1-methyl-5-((((R)-1-phenylethoxy)carbonyl)amino)-1H-pyrazol-4-yl)phenyl)-2-oxabicyclo[2.2.2]octan-1-yl)acetic acid], the 50% inhibitory concentration (IC50) was determined as 88 nM.

For the molecule `Cc1noc(C23CCC(c4ccc(CC(=O)O)cc4)(CC2)OC3)c1NC(=O)O[C@H](C)c1ccccc1Cl` [Example 56, (R)-2-(4-(4-(4-(((1-(2-chlorophenyl)ethoxy)carbonyl)amino)-3-methyl-isoxazol-5-yl)-2-oxabicyclo[2.2.2]octan-1-yl)phenyl)acetic acid], the IC50 amounted to 93 nM.

In the case of `CC(C1CC1)N(C)C(=O)OCc1c(-c2ccc(C34CCC(CC(=O)O)(CC3)OC4)cc2)cnn1C` (racemic) [Example 36, (rac)-2-(4-(4-(5-((((1-cyclopropyl-ethyl)(methyl)carbamoyl)oxy)methyl)-1-methyl-1-pyrazol-4-yl)phenyl)-2-oxabicyclo[2.2.2]octan-1-yl)acetic acid], the IC50 came to 1890 nM.

In the case of `C[C@@H](OC(=O)Nc1c(-c2ccc(C34CCC(CC(=O)O)(CC3)OC4)c(F)c2)cnn1C)c1ccccc1Cl` [Example 31, 2-(4-(4-(5-((((R)-1-(2-chlorophenyl)ethoxy)carbonyl)amino)-1-methyl-1H-pyrazol-4-yl)-2-fluorophenyl)-2-oxabicyclo[2.2.2]octan-1-yl)acetic acid], the IC50 came to 112 nM.

`Cc1noc(-c2ccc(C34CCC(CC(=O)O)(CC3)OC4)c(F)c2)c1NC(=O)O[C@H](C)c1ccccc1` [Example 57, 2-(4-(2-fluoro-4-(3-methyl-4-((((R)-1-phenylethoxy)carbonyl)amino)isoxazol-5-yl)phenyl)-2-oxabicyclo[2.2.2]octan-1-yl)acetic acid]: the IC50 worked out at 41 nM.

For `C[C@@H](OC(=O)Nc1c(-c2ccc(C34CCC(CC(=O)O)(CC3)OC4)cc2)cnn1CC1CC1)c1ccccc1` [Example 10, (R)-2-(4-(4-(1-(cyclopropylmethyl)-5-(((1-phenylethoxy)carbonyl)amino)-1H-pyrazol-4-yl)phenyl)-2-oxabicyclo[2.2.2]octan-1-yl)acetic acid], the half-maximal inhibitory concentration (IC50) turned out to be 422 nM.

For the molecule `CC(C1CCC1)N(C)C(=O)OCc1c(-c2ccc(C34CCC(CCC(=O)O)(CC3)OC4)cc2)nnn1C` (racemic) [Example 5, (±)-3-(4-(4-(5-((((1-Cyclobutylethyl)(methyl)carbamoyl)oxy)methyl)-1-methyl-1H-1,2,3-triazol-4-yl)phenyl)-2-oxabicyclo[2.2.2]octan-1-yl)propanoic acid], the IC50 amounted to 440 nM.

Turning to `C[C@@H](OC(=O)Nc1c(-c2ccc(C34CCC(C(=O)O)(CC3)OC4)cc2)cnn1C)c1ccccc1` [Example 9, (R)-4-(4-(1-methyl-5-(((1-phenylethoxy)carbonyl)amino)-1H-pyrazol-4-yl)phenyl)-2-oxabicyclo[2.2.2]octane-1-carboxylic acid], the IC50 was determined as 278 nM.

Regarding `Cc1cc(C23CCC(CC(=O)O)(CC2)OC3)ccc1-c1cnn(C)c1NC(=O)O[C@H](C)c1ccccc1Cl` [Example 33, 2-(4-(4-(5-((((R)-1-(2-chlorophenyl)ethoxy)carbonyl)amino)-1-methyl-1H-pyrazol-4-yl)-3-methylphenyl)-2-oxabicyclo[2.2.2]octan-1-yl)acetic acid], the IC50 amounted to 537 nM.
